Source: patent US20230292744A1, “FLYING PEST CONTROL COMPOSITION AND FLYING PEST CONTROL SPRAY” (Kao Corporation, priority 2019, published 2023)

Assays:
Type in all cases: physicochemical
[1] = Surface tension at 25° C. by the Wilhelmy method; settings: 3 mmol/kg aqueous solution of the wetting agent, value 10 minutes after immersion
From the text: With respect to respective wetting agents described in Table 1, one obtained by dissolving each wetting agent in water to prepare an aqueous solution having a concentration of 3 mmol/kg was used as a measurement sample. With respect to a flying pest exterminating composition described of each of the Examples, the foregoing composition was used as it was as a measurement sample. These measurement samples were each poured into a glass-made Petri dish having a diameter of 6.4 cm and a depth of 3.8 cm, and after removing air bubbles on the water surface, the measurement was performed in the state that the resulting sample was allowed to stand still for 30 minutes or more. In the present measurement, using a surface tension balance “K100” (manufactured by KRÜSS GmbH), a platinum plate was kept immersed in the aforementioned aqueous solution in a depth of 1 mm, and a measured value 10 minutes after the immersion was taken as a value of the surface tension.

[2] = tested on: Wings of Aedes albopictus (female); test: Contact angle against wings of mosquito; settings: 0.5 μL of 3 mmol/kg aqueous solution, 25° C., one second after dropping, θ/2 method
From the text: Wings of Aedes albopictus (female) were collected, and 8 to 10 pieces of the collected wings were arranged without generating gaps on a double-sided tape (“NITTO TAPE”, manufactured by Nitto Denko Corporation).

[3] = Reach amount of sprayed droplets; settings: spray container A, horizontal distance 30 cm, per spraying (five trigger operations)
Description: A spray in which a 3 mmol/kg aqueous solution of the wetting agent shown in Table 1 was filled in a spray container A shown in Table 2 was prepared.
In the evaluation method described in the preceding section, one in which instead of the mesh net (3), a paper towel (“Kim Towel White”, manufactured by Nippon Paper Crecia Co., Ltd.) cut into a size of 6 cm×6 cm was stuck to the front face (11) of the frame (1) with a double-sided tape was prepared. Before the evaluation, the total weight of the frame (1) and the paper towel was measured, and then, the spray was fixed at a position where the horizontal distance d until the front face (11) of the frame (1) was 30 cm such that the tip of the spray nozzle (that is, the ejection port) (41) of the spray container (4) reached, and the trigger operation was performed five times toward the inside of the frame (1) to spray the aqueous solution. After spraying, the weights of the frame (1) and the paper towel were measured, and a reach amount of the sprayed droplets per spraying was calculated according to the following calculation equation.
(Reach amount of sprayed droplets (mg/cm^2 per time)={(Weights of frame and paper towel after spraying)−(Weights of frame and paper towel before spraying)}/(Area (36 cm^2) of paper towel)/(Spraying time (five times))
It can be judged that the wetting agent is one in which the larger the reach amount of sprayed droplets, the higher the straightness of the spray droplets when used for the flying pest exterminating composition, and the more excellent the action of capable of efficiently reaching the flying pests.

25° C. surface tension [1] [mN/m]	Contact angle against wing of mosquito [2] [°]	Reach amount of sprayed droplets of 3 mmol/kg aqueous solution [3] [mg/cm^2]	Compound
38.30	79.1	1.7	CCCCC(CC)COCC(O)CO (stereo not drawn) [e, 2-Ethylhexyl glyceryl ether]
29.20	111.0	5.7	CCCCCCCCCCCCOS(=O)(=O)[O-].[Na+] [g, Sodium lauryl sulfate]
26.13	54.0	0.2	Polyoxyethylene(3) lauryl ether [i]
36.09	71.9	2.6	Polyoxyethylene(12) lauryl ether [d]
42.13	113.8	3.2	Polyoxyethylene(19) lauryl ether [f]
50.54	116.4	6.1	Polyoxyethylene(47) lauryl ether [j]

Continued, compound first:

Compound	25° C. surface tension [1] [mN/m]	Contact angle against wing of mosquito [2] [°]	Reach amount of sprayed droplets of 3 mmol/kg aqueous solution [3] [mg/cm^2]
Benzalkonium chloride	32.68	80.0	3.1
C10-C14 alkyl glucoside [b]	29.61	55.0	1.7
Polyoxyethylene(5) lauryl ether	27.34	38.6	0.5
Polyoxyethylene(9) lauryl ether [c]	31.82	64.8	2.4
